Measurements: article PMC9234961 (Journal of Medicinal Chemistry, 2022)

What was measured:
CNR2 = biological target: T1, CNR2 (Homo sapiens, UniProt P34972); assay: SAFETYScan GPCR cAMP, Antagonist; format: cell-based
T1 construct: expressed in transfected cells
Source text: (§1) Supplement jm1c02175_si_002.xlsx, sheet "SAFETYScan" | column: RC50 (uM); Max Response

CAV1.2 = CAV1.2 (Homo sapiens, UniProt Q13936); assay: SAFETYScan Ion Channel, Blocker; format: cell-based
Source text: as §1

GABAA [1] = biological target: T2, GABAA (Homo sapiens, UniProt P14867+P18507+P47870); assay: SAFETYScan Ion Channel, Blocker; format: cell-based; conditions: read-out: Max Response
Source text: as §1

HTR3A [2] = biological target: T3, HTR3A (Homo sapiens, UniProt P46098); assay: SAFETYScan Ion Channel, Blocker; format: cell-based
T3 sequence (P46098 24-478): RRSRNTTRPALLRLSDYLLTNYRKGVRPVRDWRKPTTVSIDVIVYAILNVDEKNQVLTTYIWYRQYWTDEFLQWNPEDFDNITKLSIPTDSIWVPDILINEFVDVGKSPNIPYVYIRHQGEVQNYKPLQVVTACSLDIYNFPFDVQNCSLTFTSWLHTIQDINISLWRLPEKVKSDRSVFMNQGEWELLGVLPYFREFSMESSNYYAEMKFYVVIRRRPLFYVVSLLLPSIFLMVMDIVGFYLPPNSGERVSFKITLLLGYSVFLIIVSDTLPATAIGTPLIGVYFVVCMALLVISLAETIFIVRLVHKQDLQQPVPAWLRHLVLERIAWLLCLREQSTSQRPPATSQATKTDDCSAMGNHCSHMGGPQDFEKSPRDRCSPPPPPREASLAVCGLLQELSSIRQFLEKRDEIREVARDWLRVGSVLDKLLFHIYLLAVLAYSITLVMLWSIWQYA
Source text: as §1

KvLQT1/minK [3] = biological target: T4, KvLQT1/minK (Homo sapiens, UniProt P51787); assay: SAFETYScan Ion Channel, Blocker; format: cell-based
Source text: as §1

NAV1.5 = NAV1.5 (Homo sapiens, UniProt Q14524); assay: SAFETYScan Ion Channel, Blocker; format: cell-based
Source text: as §1

NMDAR (1A/2B) [4] = biological target: T5, NMDAR (1A/2B) (Homo sapiens, UniProt Q05586+Q13224); assay: SAFETYScan Ion Channel, Blocker; format: cell-based
Source text: as §1

hERG = hERG (Homo sapiens, UniProt Q12809); assay: SAFETYScan Ion Channel, Blocker; format: cell-based
Source text: as §1

nAChR(a4/b2) [5] = biological target: T6, nAChR(a4/b2) (Homo sapiens, UniProt P17787+P43681); assay: SAFETYScan Ion Channel, Blocker; format: cell-based
Source text: as §1

GABAA [6] = biological target: T2, GABAA; assay: SAFETYScan Ion Channel, Opener; format: cell-based; conditions: read-out: Max Response
Source text: as §1

HTR3A [7] = biological target: T3, HTR3A; assay: SAFETYScan Ion Channel, Opener; format: cell-based
Source text: as §1

KvLQT1/minK [8] = biological target: T4, KvLQT1/minK; assay: SAFETYScan Ion Channel, Opener; format: cell-based
Source text: as §1

NMDAR (1A/2B) [9] = biological target: T5, NMDAR (1A/2B); assay: SAFETYScan Ion Channel, Opener; format: cell-based
Source text: as §1

nAChR(a4/b2) [10] = biological target: T6, nAChR(a4/b2); assay: SAFETYScan Ion Channel, Opener; format: cell-based
Source text: as §1

GR = biological target: T7, GR (Homo sapiens, UniProt P04150); assay: SAFETYScan NHR Protein Interaction, Agonist; format: cell-based
T7 sequence (P04150 1-777): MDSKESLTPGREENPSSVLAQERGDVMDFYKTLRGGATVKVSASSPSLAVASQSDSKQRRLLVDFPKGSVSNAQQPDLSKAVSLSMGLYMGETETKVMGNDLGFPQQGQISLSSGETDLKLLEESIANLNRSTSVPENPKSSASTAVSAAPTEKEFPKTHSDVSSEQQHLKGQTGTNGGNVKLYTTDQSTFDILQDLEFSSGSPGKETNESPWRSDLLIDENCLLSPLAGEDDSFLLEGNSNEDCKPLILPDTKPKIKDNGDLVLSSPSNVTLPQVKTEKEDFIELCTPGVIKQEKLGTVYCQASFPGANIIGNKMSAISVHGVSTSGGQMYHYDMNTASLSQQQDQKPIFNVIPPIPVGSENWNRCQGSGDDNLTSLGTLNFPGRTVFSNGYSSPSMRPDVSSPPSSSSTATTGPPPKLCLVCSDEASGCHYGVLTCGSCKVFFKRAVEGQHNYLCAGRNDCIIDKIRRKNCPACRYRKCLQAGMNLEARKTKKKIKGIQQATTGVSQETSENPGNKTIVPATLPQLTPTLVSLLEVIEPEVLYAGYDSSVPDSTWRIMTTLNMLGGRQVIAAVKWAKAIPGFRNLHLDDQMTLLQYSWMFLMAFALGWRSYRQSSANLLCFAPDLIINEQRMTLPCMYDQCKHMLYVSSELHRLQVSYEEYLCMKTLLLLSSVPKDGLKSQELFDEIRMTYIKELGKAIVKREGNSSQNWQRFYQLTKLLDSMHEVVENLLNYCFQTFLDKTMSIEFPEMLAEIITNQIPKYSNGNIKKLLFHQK
Source text: as §1

DAT = DAT (Homo sapiens, UniProt Q01959); assay: SAFETYScan Transporter, Blocker; format: cell-based
Source text: as §1

SERT = SERT (Homo sapiens, UniProt P31645); assay: SAFETYScan Transporter, Blocker; format: cell-based
Source text: as §1

OCI-Ly1 = assay: Cell proliferation assay (14 days), OCI-Ly1
Protocol: Cells were seeded in 96-well culture plates at a density of 2500 cells/well in RPMI-1640 medium (Sigma-
Aldrich) supplemented with 10% FBS (Gibco). Compounds were initially dispensed into 96-well U-bottom
plates using an Echo 550 acoustic dispenser (Labcyte Inc.), then diluted in RPMI-1640 medium and
transferred onto the cells. Cells were treated with 8 compound concentrations in duplicate, ranging from
with compound for 14 days, with medium changes at days 3, 7 and 10 carried out as follows: fresh 96-well
cell culture plates were prepared containing 100 µl medium plus compound at the assay concentrations
(white plates were used on day 10 to optimise luminescence measurement). Assay plates containing cells
were vortexed to mix and cell density in one control well was counted using a Coulter Z2 cell counter
(Beckman Coulter). The volume of medium containing 2500 cells in the control well was calculated and this volume of cells was transferred from every well of the assay plates to the corresponding well of the fresh plates containing compound. After 14 days, CellTiter Glo reagent (Promega) was added to the medium in each well of the assay plate at a ratio of 1:2, mixed on a plate shaker, then incubated at room temperature for 10 minutes. Luminescence was measured using an Envision plate reader (Perkin Elmer) and the relative luminescence at each compound concentration, compared to DMSO alone, was calculated. GI50 were determined using a 4-parameter curve fit in Dotmatics (Bishops Stortford, UK).

T6 sequence (P43681 29-627 limits assumed): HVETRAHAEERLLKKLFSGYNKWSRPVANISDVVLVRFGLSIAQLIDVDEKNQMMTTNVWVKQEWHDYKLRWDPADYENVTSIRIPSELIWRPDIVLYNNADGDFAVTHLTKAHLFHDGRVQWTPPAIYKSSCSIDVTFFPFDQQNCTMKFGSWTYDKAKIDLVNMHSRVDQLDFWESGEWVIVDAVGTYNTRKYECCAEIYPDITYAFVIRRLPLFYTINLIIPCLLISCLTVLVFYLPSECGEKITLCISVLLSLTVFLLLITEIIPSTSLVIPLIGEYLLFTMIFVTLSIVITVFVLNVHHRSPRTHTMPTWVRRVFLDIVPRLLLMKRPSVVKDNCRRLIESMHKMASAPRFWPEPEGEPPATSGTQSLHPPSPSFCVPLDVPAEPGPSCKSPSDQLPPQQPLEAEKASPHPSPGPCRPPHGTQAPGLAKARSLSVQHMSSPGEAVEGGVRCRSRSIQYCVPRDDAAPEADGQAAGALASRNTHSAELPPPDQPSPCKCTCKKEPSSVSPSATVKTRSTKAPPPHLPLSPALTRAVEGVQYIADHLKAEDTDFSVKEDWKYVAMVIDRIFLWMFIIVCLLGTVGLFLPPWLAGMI
T6 sequence (P17787 26-502): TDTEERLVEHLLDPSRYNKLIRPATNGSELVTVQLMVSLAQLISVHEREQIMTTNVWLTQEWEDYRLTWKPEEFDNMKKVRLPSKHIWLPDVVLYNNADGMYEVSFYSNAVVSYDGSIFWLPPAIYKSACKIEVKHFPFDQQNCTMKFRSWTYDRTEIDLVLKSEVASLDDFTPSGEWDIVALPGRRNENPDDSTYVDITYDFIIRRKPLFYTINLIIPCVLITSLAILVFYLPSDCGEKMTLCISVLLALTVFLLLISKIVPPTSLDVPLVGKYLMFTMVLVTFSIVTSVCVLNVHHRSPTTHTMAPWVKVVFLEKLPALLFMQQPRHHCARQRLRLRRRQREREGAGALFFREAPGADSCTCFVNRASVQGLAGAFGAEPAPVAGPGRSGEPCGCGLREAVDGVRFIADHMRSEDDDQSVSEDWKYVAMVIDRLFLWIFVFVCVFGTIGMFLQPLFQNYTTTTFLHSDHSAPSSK
T5 sequence (Q13224 27-1484, other chains not shown): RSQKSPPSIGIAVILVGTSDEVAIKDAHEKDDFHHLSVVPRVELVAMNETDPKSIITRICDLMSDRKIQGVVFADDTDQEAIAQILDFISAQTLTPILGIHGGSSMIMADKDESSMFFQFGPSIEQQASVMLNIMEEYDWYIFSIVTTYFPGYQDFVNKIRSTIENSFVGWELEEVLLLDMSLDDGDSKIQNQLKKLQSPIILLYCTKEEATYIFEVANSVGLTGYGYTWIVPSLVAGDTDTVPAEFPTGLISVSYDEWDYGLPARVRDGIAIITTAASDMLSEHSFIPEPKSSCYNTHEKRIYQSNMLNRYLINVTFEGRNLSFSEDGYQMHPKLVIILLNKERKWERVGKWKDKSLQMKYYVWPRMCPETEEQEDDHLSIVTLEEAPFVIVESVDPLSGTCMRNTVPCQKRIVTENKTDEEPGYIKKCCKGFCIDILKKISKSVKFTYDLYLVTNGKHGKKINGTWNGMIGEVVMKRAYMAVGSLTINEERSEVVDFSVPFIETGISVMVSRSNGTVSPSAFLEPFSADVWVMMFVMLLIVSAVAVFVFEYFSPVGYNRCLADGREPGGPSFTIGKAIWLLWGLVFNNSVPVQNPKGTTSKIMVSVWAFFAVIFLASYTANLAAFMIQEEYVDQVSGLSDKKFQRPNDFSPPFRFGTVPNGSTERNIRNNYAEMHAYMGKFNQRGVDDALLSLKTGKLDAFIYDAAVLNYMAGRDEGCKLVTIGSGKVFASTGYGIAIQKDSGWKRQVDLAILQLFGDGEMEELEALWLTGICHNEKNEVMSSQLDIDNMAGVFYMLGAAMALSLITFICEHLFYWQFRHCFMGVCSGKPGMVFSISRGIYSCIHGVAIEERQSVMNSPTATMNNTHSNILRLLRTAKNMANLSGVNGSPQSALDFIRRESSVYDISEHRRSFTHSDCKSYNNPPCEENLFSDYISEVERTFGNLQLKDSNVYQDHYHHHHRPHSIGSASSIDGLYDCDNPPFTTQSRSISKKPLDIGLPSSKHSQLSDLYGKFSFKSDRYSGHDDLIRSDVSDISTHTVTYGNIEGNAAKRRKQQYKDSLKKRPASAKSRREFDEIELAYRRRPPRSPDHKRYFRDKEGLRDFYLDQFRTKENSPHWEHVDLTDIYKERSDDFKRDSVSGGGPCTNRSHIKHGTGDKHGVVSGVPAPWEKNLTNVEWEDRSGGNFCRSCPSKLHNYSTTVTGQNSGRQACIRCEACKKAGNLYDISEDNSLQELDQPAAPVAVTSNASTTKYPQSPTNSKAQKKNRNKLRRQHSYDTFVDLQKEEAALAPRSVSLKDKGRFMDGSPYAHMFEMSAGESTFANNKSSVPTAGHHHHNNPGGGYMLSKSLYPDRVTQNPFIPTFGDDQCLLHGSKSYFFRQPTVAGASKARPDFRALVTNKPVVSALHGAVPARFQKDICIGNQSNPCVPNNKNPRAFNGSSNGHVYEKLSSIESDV
T4 sequence (P51787 whole entry): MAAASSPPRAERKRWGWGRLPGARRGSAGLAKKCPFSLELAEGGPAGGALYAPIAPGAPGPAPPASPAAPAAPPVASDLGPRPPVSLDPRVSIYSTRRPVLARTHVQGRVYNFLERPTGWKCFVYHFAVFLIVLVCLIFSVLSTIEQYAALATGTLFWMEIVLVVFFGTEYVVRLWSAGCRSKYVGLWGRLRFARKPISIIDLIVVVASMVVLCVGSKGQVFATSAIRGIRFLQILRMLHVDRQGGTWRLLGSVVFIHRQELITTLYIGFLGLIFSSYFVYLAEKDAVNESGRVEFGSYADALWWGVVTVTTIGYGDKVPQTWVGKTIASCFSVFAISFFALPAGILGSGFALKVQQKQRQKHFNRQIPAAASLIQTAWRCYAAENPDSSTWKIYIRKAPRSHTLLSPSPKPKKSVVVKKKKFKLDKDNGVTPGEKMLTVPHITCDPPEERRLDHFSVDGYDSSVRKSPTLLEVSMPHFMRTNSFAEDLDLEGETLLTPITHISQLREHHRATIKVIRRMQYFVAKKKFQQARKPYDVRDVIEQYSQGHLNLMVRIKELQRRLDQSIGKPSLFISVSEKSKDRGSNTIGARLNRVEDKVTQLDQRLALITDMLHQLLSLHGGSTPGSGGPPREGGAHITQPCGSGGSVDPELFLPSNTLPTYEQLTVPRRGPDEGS
Chain of SERT (P31645 whole entry): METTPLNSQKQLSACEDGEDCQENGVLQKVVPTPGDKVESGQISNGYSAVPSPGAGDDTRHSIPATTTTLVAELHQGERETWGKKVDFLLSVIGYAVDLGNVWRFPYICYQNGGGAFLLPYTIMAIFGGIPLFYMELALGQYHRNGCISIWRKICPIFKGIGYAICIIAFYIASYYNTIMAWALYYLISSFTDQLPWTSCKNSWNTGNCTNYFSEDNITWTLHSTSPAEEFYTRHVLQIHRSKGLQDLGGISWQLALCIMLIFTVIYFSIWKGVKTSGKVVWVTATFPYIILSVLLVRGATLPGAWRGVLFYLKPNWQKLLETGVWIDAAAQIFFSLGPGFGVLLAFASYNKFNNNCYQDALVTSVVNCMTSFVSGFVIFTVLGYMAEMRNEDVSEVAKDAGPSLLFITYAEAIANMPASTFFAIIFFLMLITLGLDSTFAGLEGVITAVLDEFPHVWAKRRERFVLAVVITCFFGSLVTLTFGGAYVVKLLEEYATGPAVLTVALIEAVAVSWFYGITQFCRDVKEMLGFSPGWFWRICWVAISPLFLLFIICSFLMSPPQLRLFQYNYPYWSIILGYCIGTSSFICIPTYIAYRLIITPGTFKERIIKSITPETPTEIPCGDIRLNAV
T1 sequence (P34972 whole entry): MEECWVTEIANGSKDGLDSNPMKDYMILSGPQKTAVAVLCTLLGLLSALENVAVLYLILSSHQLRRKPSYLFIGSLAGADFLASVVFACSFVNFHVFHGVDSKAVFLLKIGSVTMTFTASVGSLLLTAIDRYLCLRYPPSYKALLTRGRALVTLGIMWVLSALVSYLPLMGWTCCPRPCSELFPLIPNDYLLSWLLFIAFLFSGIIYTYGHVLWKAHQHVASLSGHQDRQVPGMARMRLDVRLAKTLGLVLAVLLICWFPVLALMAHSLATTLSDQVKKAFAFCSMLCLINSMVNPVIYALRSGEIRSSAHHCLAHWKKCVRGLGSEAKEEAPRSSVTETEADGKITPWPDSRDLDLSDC
Chain of DAT (Q01959 whole entry): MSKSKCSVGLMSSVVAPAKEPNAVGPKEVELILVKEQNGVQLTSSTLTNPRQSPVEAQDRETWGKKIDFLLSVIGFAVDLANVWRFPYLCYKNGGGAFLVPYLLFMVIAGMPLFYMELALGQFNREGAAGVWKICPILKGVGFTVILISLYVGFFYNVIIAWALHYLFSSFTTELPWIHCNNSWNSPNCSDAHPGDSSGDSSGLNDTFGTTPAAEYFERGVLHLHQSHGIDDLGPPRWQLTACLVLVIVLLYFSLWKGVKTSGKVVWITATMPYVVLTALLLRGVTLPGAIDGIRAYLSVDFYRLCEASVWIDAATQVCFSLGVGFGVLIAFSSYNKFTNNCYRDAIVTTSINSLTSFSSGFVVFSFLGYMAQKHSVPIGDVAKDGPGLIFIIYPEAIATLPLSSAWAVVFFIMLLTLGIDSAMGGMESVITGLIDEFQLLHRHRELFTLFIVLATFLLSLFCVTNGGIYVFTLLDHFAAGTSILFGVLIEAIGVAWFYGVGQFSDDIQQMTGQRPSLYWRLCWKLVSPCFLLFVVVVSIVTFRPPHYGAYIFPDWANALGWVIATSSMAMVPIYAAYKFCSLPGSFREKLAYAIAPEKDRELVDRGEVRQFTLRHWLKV

For `C[C@H]1C[C@@H](O)CN(c2ncc(Cl)c(Nc3ccc4c(c3)c3c(c(=O)n4C)OCC(F)(F)[C@H](C4CC4)N3)n2)C1` [12a CCT373566, (S)-10-((5-Chloro-2-((3R,5S)-3-hydroxy-5-methylpiperidin-1-yl)pyrimidin-4-yl)amino)-2-cyclopropyl-3,3-difluoro-7-methyl-1,2,3,4-tetrahydro-[1,4]oxazepino[2,3-c]quinolin-6(7H)-one], which Emax (CNR2; read-out: Max Response) is on record?
Its Emax is 10.7%.

What about the IC50 (CNR2; read-out: RC50 (IC50)) of the same molecule?
The IC50 was greater than 10 µM.

And the Emax (CAV1.2; read-out: Max Response)?
The Emax was 0%.

And the IC50 (CAV1.2; read-out: RC50 (IC50))?
The IC50 was greater than 10 µM.

And the Emax (GABAA [1])?
The Emax was 1.51%.

What about the Emax (HTR3A [2]; read-out: Max Response) of the same molecule?
Its Emax is 15%.

What about the IC50 (HTR3A [2]; read-out: RC50 (IC50)) of the same molecule?
The IC50 was greater than 10 µM.

And the Emax (KvLQT1/minK [3]; read-out: Max Response)?
The Emax was 13.1%.

What about the IC50 (KvLQT1/minK [3]; read-out: RC50 (IC50)) of the same molecule?
The IC50 was greater than 10 µM.

What about the Emax (NAV1.5; read-out: Max Response) of the same molecule?
Its Emax is 1.35%.

And the IC50 (NAV1.5; read-out: RC50 (IC50))?
The IC50 was greater than 10 µM.

What about the Emax (NMDAR (1A/2B) [4]; read-out: Max Response) of the same molecule?
The Emax was 0%.

And the IC50 (NMDAR (1A/2B) [4]; read-out: RC50 (IC50))?
Its IC50 is greater than 10 µM.

What about the Emax (hERG; human, read-out: Max Response) of the same molecule?
Its Emax is 93%.

And the IC50 (hERG; read-out: RC50 (IC50))?
The IC50 was 1.44 µM.

What about the Emax (nAChR(a4/b2) [5]; read-out: Max Response) of the same molecule?
The Emax was 7.49%.

What about the IC50 (nAChR(a4/b2) [5]; read-out: RC50 (IC50)) of the same molecule?
The IC50 was greater than 10 µM.

What about the Emax (GABAA [6]) of the same molecule?
The Emax was 4.81%.

And the Emax (HTR3A [7]; read-out: Max Response)?
Its Emax is 1.5%.

And the EC50 (HTR3A [7]; read-out: RC50 (EC50))?
The EC50 was greater than 10 µM.

And the Emax (KvLQT1/minK [8]; read-out: Max Response)?
The Emax was 3.79%.

And the EC50 (KvLQT1/minK [8]; read-out: RC50 (EC50))?
The EC50 was greater than 10 µM.

What about the Emax (NMDAR (1A/2B) [9]; read-out: Max Response) of the same molecule?
Its Emax is 1.31%.

What about the EC50 (NMDAR (1A/2B) [9]; read-out: RC50 (EC50)) of the same molecule?
Its EC50 is greater than 10 µM.

What about the Emax (nAChR(a4/b2) [10]; read-out: Max Response) of the same molecule?
Its Emax is 0%.

And the EC50 (nAChR(a4/b2) [10]; read-out: RC50 (EC50))?
Its EC50 is greater than 10 µM.

And the Emax (GR; read-out: Max Response)?
The Emax was 0.05%.

And the EC50 (GR; read-out: RC50 (EC50))?
Its EC50 is greater than 10 µM.

And the Emax (DAT; read-out: Max Response)?
Its Emax is 0%.

What about the IC50 (DAT; read-out: RC50 (IC50)) of the same molecule?
The IC50 was greater than 10 µM.

And the Emax (SERT; read-out: Max Response)?
Its Emax is 0%.

And the IC50 (SERT; read-out: RC50 (IC50))?
Its IC50 is greater than 10 µM.

What about the “OCI-Ly1 GI50” value (OCI-Ly1; 14-day proliferation assay) of the same molecule?
The value was “Very potent growth inhibition”.

And the GI50 (OCI-Ly1; Homo sapiens, OCI-Ly1, 336 h, read-out: OCI-Ly1 GI50)?
Its GI50 is 0.0021 µM.
